Non-standard residues stand in square brackets, D forms with d. No end group written: not given here. sY = N[C@@H](Cc1ccc(OS(=O)(=O)O)cc1)C(=O)O
What was measured:
[1] = tested on: Agrobacterium tumefaciens strain GV3101; experiment: Growth of Agrobacterium tumefaciens culture (OD 600); assay type: cell-based; conditions: 10.0%, 2.0%, 0.40%, 0.08%, 0.02%
Method: Agrobacterium tumefaciens strain GV3101 was inoculated into Luria broth medium (LB) and grown for 20 hours. Initially the optical density (OD) of the culture was measured at a wavelength of 600 nm using a spectrophotometer and normalized to a low starting density. The cultures were then divided equally and treated with similar proportions of thionins that are representative of mixtures used to treat citrus trees. The ratios of Cs.thionin (SEQ ID NO: 651), As.thionin (SEQ ID NO: 652) and Mt.thionin (SEQ ID NO: 653) used were 10.0%, 2.0%, 0.40%, 0.08%, and 0.02% and were prepared to match the 20 mL total volume of filtrate of each of the thionin mixtures that is used as a treatment per tree. Each thionin mixture was also compared to control mixtures containing only: filtrate, minimal media (LB), or a tetracycline (Tet) antibiotic (10 μg/mL per culture). Each bar represents a combined OD measure of 3 replicates. After incubation with the thionin and antibiotic mixtures, the optical density (OD 600) was measured again to determine if growth of the Agrobacterium cultures was reduced or inhibited.

[2] = tested on: Candidatus Liberibacter asiaticus; conditions: in vivo
soybean [3] = experiment: Foliar application to soybean, field yield trials; assay type: in vivo; conditions: for Average Bu/Ac Increase compared to Control Variety 1 and 2 / Average Total Yield Bu/Ac Variety 1 and 2 / Average Total Yield Bu/Ac Variety 2: foliar at R2, 7 US Midwest locations; for Average Total Yield Bu/Ac Variety 2: AG3536
soybean [4] = experiment: Foliar application to soybean, field yield trials; assay type: in vivo; conditions: foliar at R2, AG2836, 7 US Midwest locations
soybean [5] = experiment: Foliar application to soybean in growth room, plant height (non-stress, heat and water deficit stress); assay type: in vivo
Method: Ec.Flg22 (SEQ ID NO: 527) was applied to soybean (Beck's 297NR).
Plant height (cm) was measured just prior to the foliar application delivered at 3 weeks and then again 2 weeks later when the plants were 5-weeks-old. Two replicate trials were conducted using 18 plants per trial.
Soybean plants were grown as described in Example 6. The At.PSKα polypeptide (SEQ ID NO: 598) was applied as a foliar spray to the plants at the V1-V4 stage. Soybean plants treated with foliar applications of At.PSKα and control plants treated with water and surfactant alone were then grown in conditions described in Examples 7-9 that produced a non-stress and stress (heat and water deficit) environments. Table 37 describes the percentage change or increase in height reported for soybean plants treated with At.PSKα as a foliar spray at the V1-V4 growth stage.
RHPP bioactive priming polypeptide (SEQ ID NO: 600) was also applied as foliar treatment to R1 stage hybrid soybean (Beck's 297R4) with 0.1% (v/v) non-ionic surfactant ([…] SURFACE) using a spray bottle delivering approximately 1.2 ml/plant. This experiment was performed to look at the effects of RHPP on plant growth and was conducted using a total of 18 plants per treatment group. […] R1 stage soybean plants were treated with nothing (non-treated control), […] SURFACE surfactant applied at a concentration of 0.1% (v/v) or the RHPP polypeptide (300 nM) applied in combination with […] SURFACE surfactant (0.1% v/v). Height for each plant was recorded at the time of spray and again at 16 days post foliar application and average growth parameters were compared between foliar treatments (Table 39).

corn [6] = experiment: Foliar application to corn in growth room, plant height (non-stress, heat and water deficit stress)
corn [7] = assay type: in vivo
[8] = tested on: reactive oxygen species (ROS) production in corn tissue; experiment: ROS activity assay in corn tissue (luminol/horseradish peroxidase, RLU); conditions: Table 33; 5 nM polypeptide; RLU relative to native Bt.4Q7Flg22 = 100
[9] = tested on: reactive oxygen species (ROS) production in Kiwi 'Hayward' leaf petioles; experiment: ROS activity assay in kiwi leaf petioles; assay type: cell-based, Actinidiae deliciosa; conditions: 100 nM peptide
Method: To test the sensitivity of kiwi leaves to 22-amino acid fragments of flagellin, 1 mm slices were cut through Actinidiae deliciosa Kiwi ‘Hayward’ leaf petioles and floated in 150 μL of water in a 96-well plate, with one slice per well. […] In two independent experiments, a total of 6 kiwi leaf petiole samples were treated with each Flg22 polypeptide in Table 94. The average total RLU and standard error of the means (SEM) was calculated for each treatment. A two-tailed T-test was used to determine significance at the 90% confidence level (P<0.1) between treatments. Relative ROS production was determined for each polypeptide in comparison to total RLUs for the 100 nM Bt.4Q7Flg22 control.

[10] = tested on: reactive oxygen species (ROS) production in soybean leaf tissue; experiment: ROS activity assay in soybean leaf tissue (luminol/horseradish peroxidase, RLU); assay type: cell-based; conditions: Table 33; 100 nM polypeptide; RLU relative to native Bt.4Q7Flg22 = 100
[11] = tested on: Pseudomonas syringae pv. actinidiae (PSA-V); experiment: PSA-V leaf spot in potted kiwi plants; assay type: in vivo

Mt.thionin: thionin polypeptide, applied as filtrate (RTCESQSHRFKGPCSRDSNCATVCLTEGFSGGDCRGFRRRCRCTRPCVFDEK; applied as filtrate)
growth of Agrobacterium cultures vs filtrate, LB or Tet controls [1]: dose dependent response and decreased growth

Cs.thionin: thionin polypeptide, applied as filtrate (RVCQSQSHHFHGACFSHHNCAFVCRNEGFSGGKCRGVRRRCFCSKLC; applied as filtrate; listed as Citrus sinensis)
growth of Agrobacterium cultures vs filtrate, LB or Tet controls [1]: dose dependent response and decreased growth

thionin tagged: thionin polypeptide comprising a phloem localization sequence (printed SEQ ID NO: 650) (RTCESQSHRFKGPCSRDSNCATVCLTEGFSGGDCRGFRRRCRCTRPCVFDEK)
Ct values vs control trees [2]: higher average Ct values | average Ct value vs un-tagged thionin [2]: higher average Ct value at T56

Gm RHPP (GGIRAAPTGNER; Glycine max)
Average Bu/Ac Increase compared to Control Variety 1 and 2 (soybean [3]; use rate 4.0 Fl. oz/Ac): +1.26 Bu/Ac | Average Total Yield Bu/Ac Variety 1 and 2 (soybean [3]; use rate 4.0 Fl. oz/Ac): 61.83 Bu/Ac | Average Bu/Ac Increase compared to Control Variety 1 and 2 (soybean [3]; use rate 8.0 Fl. oz/Ac): +0.51 Bu/Ac | Average Total Yield Bu/Ac Variety 1 and 2 (soybean [3]; use rate 8.0 Fl. oz/Ac): 61.08 Bu/Ac | Average Total Yield Bu/Ac Variety 2 (soybean [3]; use rate 4.0 Fl. oz/Ac): 66.35 Bu/Ac | Average Total Yield Bu/Ac Variety 2 (soybean [3]; use rate 8.0 Fl. oz/Ac): 62.46 Bu/Ac | Average Total Yield Bu/Ac Variety 1 (soybean [4]; use rate 4.0 Fl. oz/Ac): 58.61 Bu/Ac | Average Total Yield Bu/Ac Variety 1 (soybean [4]; use rate 8.0 Fl. oz/Ac): 59.47 Bu/Ac

Tyr(SO3H)-I-Tyr(SO3H)-TQ ([sY]I[sY]TQ; listed as Arabidopsis thaliana) [At.PSKα, Phytosulfokine alpha, Arabidopsis thaliana]
increase in height vs control (soybean [5]; foliar at V1-V4, non-stress environment): 3.5% | increase in height vs control (soybean [5]; foliar at V1-V4, stress (heat and water deficit) environment): 4.3% | Percentage (%) change in Height in Stress Environment Soybean with At.PSKα over control (soybean [5]; foliar spray at V1-V4, heat and water deficit stress): 4.3% | Percentage (%) change in Height in Non-Stress Environment Soybean with At.PSKα over control (soybean [5]; foliar spray at V1-V4, non-stress): 3.5% | Plant Height Normalized as a percentage of control height Non-stress (corn [6]; 5 weeks, control surfactant 0.01% v/v, HpaG-like 1 μM, At.PSKα 100 nM): 98.2% | Plant Height Normalized as a percentage of control height Stress (corn [6]; 5 weeks, heat and water deficit stress, control surfactant 0.01% v/v, HpaG-like 1 μM, At.PSKα 100 nM): 107.8% | growth phenotype vs control (corn [6]; foliar (HpaG-like 1 μM, PSKα), heat and water deficit stress): improved growth phenotype | Height (cm) after stress 5 weeks (corn [6]; heat and water deficit stress, HpaG-like 1 μM, At.PSKα 100 nM foliar): 54.88 cm | Height (cm) after non-stress 5 weeks (corn [6]; non-stress growth room, HpaG-like 1 μM, At.PSKα 100 nM foliar): 58.62 cm | Bu/Ac Foliar Soybean (yield increase) (soybean [3]; 1 μM foliar spray with surfactant at V1-V4, soybean hybrid 375 NR, vs water control): 0.8 Bu/Ac | yield increase (soybean [3]; foliar 1 μM, V1-V4, hybrid 375 NR, one location): 0.8 Bu/Ac | Bu/Ac Foliar Corn (yield increase) (corn [7]; 1 μM foliar spray with surfactant at V5-V8, corn hybrid 5140RR, vs water control): 3.0 Bu/Ac | yield increase (corn [7]; foliar 1 μM, V5-V8, hybrid 5140RR, one location): 3 Bu/Ac

TRLSSGLKINSAKDDAAGLQIA (listed as Pseudomonas syringae) [Flg22-PSA, Flg22 from Pseudomonas syringae pv. actinidiae]
Avg. Activity (%) Corn (5828 YX) 5 nM polypeptide [8]: 154.4% | Average Total Relative Light Units (RLUs); SEM in parentheses ([9]; Kiwi 'Hayward' leaf petiole slices, 40 minutes time course): 124,550 RLU | ROS production relative to Bt4Q7Flg22 (%) ([9]; Kiwi 'Hayward' leaf petioles): 262% | Avg. Activity (%) Soybean (297 R4) 100 nM polypeptide [10]: 113.1% | PSA-V leaf spot symptoms vs untreated control ([11]; 6, 16 and 23 DAI): significantly reduced PSA-V leaf spot symptoms | less leaf spot compared to untreated control ([11]; combination with Flg22-PSA pre-treatment (partner not given), 29 DAI): 14.3%

— patent publication US12268727B2, “Bioactive polypeptides for improvements in plant protection, growth and productivity” (priority 2017, dated 2025)
